According to patent US20260234144A1 (TAY THERAPEUTICS LIMITED, priority 2023, published 2026):

Test system: R223X stop codon in the mutated luciferase gene, ADXC8 luciferase reporter cell line
Test: cells
Type: cell-based
Conditions: ADXC8 cells, 24 hours; for Fold Over Control: maximum fold response relative to 200 μM G418; for pC100%: negative logarithm of the concentration giving the same response as 200 μM G418; for Emax / EC (100% of 200 uM G418 response): 24 h; for Emax: read-out: Fold Over Control, maximum fold response relative to 200 μM G418; for EC (100% of 200 uM G418 response): read-out: pC100%, negative logarithm of the concentration giving the same response as 200 μM G418

| SMILES | Fold Over Control | pC100% | Emax [%] | EC (100% of 200 uM G418 response) [µM] |
| --- | --- | --- | --- | --- |
| CNc1nc(NC2CNCC2(F)F)nc2nc(C)cc(C)c12 (single isomer, unassigned) [Example 438] | # (Fold over Ctrl ≥ 0 ≤ 1) | * (pC100 ≤ 4.5) | – | – |
| CNc1nc(N[C@H]2CN(C3CCC3)C[C@@H]2O)nc2nc(C)cc(C)c12 [Example 624] | – | – | 100 to 3000 | 1 to 10 |
| CN1CCC(Nc2nc(N)c3ccc(-c4ccccc4S(C)(=O)=O)nc3n2)CC1 [Example 116] | – | – | 0 to 100 | > 100 |
| Cc1cc(C)c2c(N)nc(NC[C@@H]3CCNC3)nc2n1 [Example 217] | – | – | – | 1 to 10 |
| CCCN1CCC(Nc2nc(N)c3c(C)cc(C)nc3n2)CC1 [Example 221] | – | – | – | 1 to 10 |
| CN1CCC(Nc2nc(N)c3ccc(-c4cccc(C#N)c4)nc3n2)CC1 [Example 112] | – | – | – | 1 to 10 |
| CC(O)c1ccc2c(N)nc(NC3CCN(C)CC3)nc2n1 (stereo not shown) [Example 288] | – | – | 100 to 3000 | 10 to 100 |
| CNc1nc(N[C@H]2CN(C)C[C@H]2C)nc2nc(C)cc(C)c12 [Example 379] | – | – | 100 to 3000 | 1 to 10 |
| Cc1nc2nc(NC3CCN(C)CC3)nc(N)c2c(C)c1-c1cnn(C)c1 [Example 678] | – | – | 0 to 100 | > 100 |
| CN1CCC(Nc2nc(N)c3ccc(-c4ncco4)nc3n2)CC1 [Example 119, N^2-(1-methylpiperidin-4-yl)-7-(oxazol-2-yl)pyrido[2,3-d]pyrimidine-2,4-diamine] | – | – | 100 to 3000 | 10 to 100 |
| Cc1cc(C)c2c(N)nc(NC3CCN(Cc4c(C)cccc4C)CC3)nc2n1 [Example 468] | – | – | 100 to 3000 | 1 to 10 |
| Cc1ccc2c(N)nc(NC3CCN(C)CC3)nc2n1 [Example 3, 7-methyl-N^2-(1-methylpiperidin-4-yl)pyrido[2,3-d]pyrimidine-2,4-diamine] | – | – | – | 1 to 10 |
| CN1CCC(Nc2nc(N)c3ccc(-c4ccccc4)nc3n2)CC1 [Example 27, N^2-(1-methylpiperidin-4-yl)-7-phenylpyrido[2,3-d]pyrimidine-2,4-diamine] | – | – | 100 to 3000 | 1 to 10 |
| CNc1nc(N[C@@H]2CCNC2)nc2nc(C)c(Cl)c(C)c12 [Example 358] | – | – | 100 to 3000 | 0.1 to 1 |
| CNc1nc(NC2CNCC2C#N)nc2nc(C)cc(C)c12 (single isomer, unassigned) [Example 452] | ## (Fold over Ctrl > 1 ≤ 30) | + (pC100% > 4.0 ≤ 5.0) | – | – |
| CNc1cc(N[C@@H]2CCN(C)C2)nc2nc(C)cc(C)c12 [Example 515, (R)—N^4,5,7-trimethyl-N^2-(1-methylpyrrolidin-3-yl)-1,8-naphthyridine-2,4-diamine] | – | – | 100 to 3000 | 1 to 10 |
| Cc1cc(C)c2c(N)nc(NC3CC4(C3)CN(C(=O)OC(C)(C)C)C4)nc2n1 [Example 134] | – | – | 0 to 100 | > 100 |
| CNc1nc(NC2CNCC2C#N)nc2nc(C)cc(C)c12 (single isomer, unassigned) [Example 451] | # (Fold over Ctrl ≥ 0 ≤ 1) | * (pC100 ≤ 4.5) | – | – |
| CNc1nc(NC2CCN3CCCC3C2)nc2nc(C)cc(C)c12 (single isomer, unassigned) [Example 442] | – | – | – | 1 to 10 |
| Cc1cc(C)c2c(N)nc(NC34CNCC3C4)nc2n1 (single isomer, unassigned) [Example 259, N^2-(3-azabicyclo[3.1.0]hexan-1-yl)-5,7-dimethylpyrido[2,3-d]pyrimidine-2,4-diamine] | – | ++ (pC100% > 5.0 ≤ 6.0) | 100 to 3000 | – |
| CN1CCC(Nc2nc(N)c3ccc(-c4cccc(N(C)C)c4)nc3n2)CC1 [Example 52] | – | – | 100 to 3000 | 1 to 10 |
